Measured values as given in patent publication US20050069999A1, “Sh3 domain binding inhibitors” (priority 2001, published 2005).

What was measured:
[1] = target: T1, Sam68ΔC and Fyn-SH3 binding (Homo sapiens, UniProt Q07666); experiment: SH3 domain binding inhibition test 1: Sam68ΔC bound to Fyn-SH3 beads, Western blot; inhibition ratio from band intensity (Test Examples 1 and 4); set-up: species or system recombinant human Sam68ΔC; mouse recombinant Fyn SH3 domain; conditions: for inhibition at 60 µM / inhibition at 150 µM: read-out: The inhibition ratio (%) of the compound against SH3 domain binding
T1 construct: (Sam68ΔC) [Sam68(331-443): made by Santa Cruz Co.]; purchased Santa Cruz Sam68(331-443); Fyn(85-139) AC
T1 sequence (Q07666 331-443, stated change not applied): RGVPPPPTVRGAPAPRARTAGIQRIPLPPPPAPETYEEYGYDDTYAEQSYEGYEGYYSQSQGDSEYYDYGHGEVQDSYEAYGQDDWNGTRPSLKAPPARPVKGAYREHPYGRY
Method: (1) Treatment of Proteins Containing the Proline-Rich Sequences with the Compounds.
The recombinant human Sam68 containing the 2 proline-rich sequences at the C terminal out of 5 proline-rich sequences in Sam68 containing proline-rich sequences (Sam68ΔC) [Sam68(331-443): made by Santa Cruz Co.], 0.25 μg was added to 1 mL of RSB buffer (10 mmol/L Tris-HCl, pH 7.6, 10 mmol/L NaCl, 1.5 mmol/L MgCl2), which is a hypotonic buffer solution containing 0.1% BSA (bovine serum albumin) [bovine serum albumin (F-V): made by Nakaraitesk] to prepare a Sam68ΔC solution. The compound was dissolved in dimethylsulfoxide (DMSO) to prepare a 10 mmol/L solution in DMSO. […] The same amount of DMSO was added to each sample. The compound was subjected to the reaction with Sam68ΔC by incubating the mixture at 37° C. for 6 hours with rotation by a roller culture machine.
(2) Treatment of Proteins Containing the SH3 Domain with the Proteins Containing the Proline-Rich Sequences Treated with the Compounds.
The Sam68ΔC solution treated with the compound, which was obtained in (1), was applied to 5 μL of Fyn-SH3-agarose beads (Fyn-SH3 beads) [Fyn(85-139) AC; made by Santa Crutz Co.], which was a mouse recombinant protein of the Fyn SH3 domain containing the SH3 domain bound to agarose beads. The binding reaction of the Sam68ΔC reacted with the compounds with Fyn-SH3 beads containing the SH3 domain were carried out at 4° C. for 16 hours with slow rotation by the roller culture machine. After the reaction, a resulting complex of Sam68ΔC and Fyn-SH3 beads was precipitated by centrifugation at […] for 3 minutes at 4° C., and then 1 mL of the TritonX/Np40 extraction buffer containing detergents [50 mmol/L Tris-HCl buffer, pH 7.4, 150 mmol/L NaCl, 1 mmol/Lethylenediaminetetraacetic acid (EDTA), 1% TritonX-100, 0.5% Nonidet P-40] was added thereto. The mixture was rotated slowly at 4° C. for 10 minutes by the roller culture machine, and precipitated and washed twice in a similar manner to that as described above. To the complex of Sam68ΔC and Fyn-SH3 beads washed above, 30 μL of Lemery's sample buffer [Protein Chemistry I-Isolation and Purification, Tokyo Kagaku Dojin, p. 211 (1976)] was added, and then the mixture was mixed well and heated at 100° C. for 10 minutes. After precipitating the beads at 1000 ppm for 5 minutes at 25° C. by a centrifuge, the supernatant was subjected to 10% polyacrylamide gel electrophoresis.
(3) Detection of Sam68ΔC Bound to the Fyn-SH3 by Western Blotting.
Sam68ΔC in the supernatant was detected by Western blotting as follows. First, the resulting gel performed the electrophoresis, which was obtained in (2), was blotted onto a nitrocellulose membrane with pore size of 0.45 μm [Protran; made by Schleicher and Schuell Co.]. After non-specific binding of the membrane was blocked by incubating the membrane at 4° C. overnight in phosphate buffer (PBS) containing 0.25% gelatin and 0.2% Tween-20 (PBS-TG), the membrane reacted with mouse anti GST antibody conjugated with horse radish peroxidase (HRP) [GST (B-14) HRP; made by Santa Crutz Co.], which was diluted 1000 times with PBS-TG, for 2 hours. After washing with PBS containing 0.2% Tween 20 (PBS-T), the detection was carried out by the chemo-luminescence reaction using ECL reagent (Amersham Pharmacia Biotech Co.).
The inhibition ratios of the compound against the SH3 domain binding were calculated as follows based on the plot of the results of the Test Example 1. The intensity of the chemo-luminescent bands of Fyn-SH3 and Sam68ΔC developed on a film was measured by a gel-scanner (TYOBO). The relative intensity of Sam68ΔC band against the intensity of Fyn-SH3 band was obtained by dividing the Sam68ΔC band intensity by the Fyn-SH3 band intensity. The ratio of the Fyn-SH3 band intensity to the Sam68ΔC band intensity was set to be 100% when no compound was added. […]

[2] = system: HIV-1 LAI strain; experiment: HIV-1 growth inhibition test (RT assay) in MT2 cells; format: cell-based; conditions: MT2 cells, 3, 5, 7 and 9 days after infection; 1, 5, 10, 25 and 50 mmol/L as printed; FIGS. 9-11 Compound 1, FIGS. 12-14 PP2
Method: (1) HIV-1 Infection and Growth Inhibition Experiment.
MT2 cells (T cell strain) were suspended in RPMI1640 medium (GIBCO No.26140-076) supplemented with 10% fetal calf serum (GIBCO, No.26140-079) at 2×10^5 cells/mL and distributed into the each well of 24 well plates (24 well plate: Coster No. 3526) by 1 mL per well. HIV-1 LAI strain {pLAI that contains DNA clone of the whole genome [GeneBank accession No. K02013 Virology 185:661 (1991)] was transfected to HeLa cells by using FuGENE6 Transfection Reagent (Roche Co. No. 1814443), incubated for 2 days and the supernatant was used.} was inoculated to each well at a final concentration of 500 cpm/μL and incubated at 37° C. overnight (virus infection). […]
HIV-1 was determined by the RT assay (Reverse Transcriptase sassy) according to the method described in J. Virol., Vol. 38, p. […]
To 5 μL of the culture supernatant obtained in (1), 25 μL of RT cocktail {50 mmol/L Tris-HCl pH 7.5, 50 mmol/L EDTA, 75 mmol/L KCl, 5 mmol/L MgCl2, 5 μg/mL Poly(A) [Pharmacia, No. 27-4110-01], 1.6 μg/mL oligo(dT)12-18 [Pharmacia, No. 27-7858-01], 5 mmol/L DTT (dithiothreitol), 0.05% NP-40 and 10 PCi/ml [α-^32P]dTTP} was added, and the mixture was incubated at 37° C. for 2 hours. […] The amount of HIV-1 was measured as RT activity count (cpm/μL) with a MICROBRTA PLUS liquid scintillation counter (Perkin Elmer). […]

[3] = system: MT2 cells; experiment: Cyto-toxicity test, Trypan blue live cell count; format: cell-based; conditions: 10 μmol/L, incubated for 3 days
Method: MT2 cells (T cell strain) were suspended in RPMI1640 medium (GIBCO, No. 26140-076) supplemented with 10% fetal calf serum (GIBCO, No. 26140-079) at 2×10^5 cells/mL and distributed into each well of 96 well plates [96 well plate: Coster] at 100 μL per well. The compound was added to each well and incubated for 3 days. The cultures were observed under a microscope to examine the condition of cells and cells were harvested, stained with 0.4% Trypan blue (SIGMA, T-8154) and live cells were counted.

[4] = Concentration of the compound 20 μmol/L
[5] = Concentration of the compound 100 μmol/L
[6] = Concentration of the compound 60 μmol/L
[7] = Concentration of the compound 150 μmol/L

Compound	inhibition at 60 µM [1, 6] [%]	inhibition at 150 µM [1, 7] [%]	other results
C[C@H]1C/C=C/[C@H]2[C@@H]3O[C@]3(C)[C@@H](C)[C@H]3[C@H](Cc4ccccc4)NC(=O)[C@]32OC(=O)O/C=C/[C@@](C)(O)C1=O [Compound 13, Cytochalasin E]	–	–	The inhibition ratio (%) of the compound against SH3 domain binding [1, 4]: 0%; The inhibition ratio (%) of the compound against SH3 domain binding [1, 5]: 21%
C/C1=C\CC(=O)OC23C(=O)NC(Cc4ccc(O)cc4)C2C(C)C2(C)OC2C3/C=C/CC(C)C1=O (stereo not drawn) [Compound 16]	67	78	–
COc1ccc(CC2NC(=O)C34OC(=O)OCCC(C)(O)C(=O)C(C)C/C=C/C3C3OC3(C)C(C)C24)cc1 (stereo not drawn) [Compound 17]	–	36	–
C=C1C(C)C2C(Cc3ccc(OC)cc3)NC(=O)C23OC(=O)O/C=C/C(C)(O)C(=O)C(C)C/C=C/C3C1O (stereo not drawn) [Compound 18]	16	67	–
COc1ccc(CC2NC(=O)C34OC(=O)O/C=C/C(C)(O)C(=O)C(C)C/C=C/C3C(O)C(C)=C(C)C24)cc1 (stereo not drawn) [Compound 19]	–	40	–
CC1=CC2/C=C(\C)CCC(O)C(O)/C=C/C(=O)OC23C(=O)NC(CC(C)C)C3C1C (stereo not drawn) [Compound 20]	92	100	–
CC1=CC2/C=C(\C)CCCC(O)/C=C/C(=O)OC23C(=O)NC(CC(C)C)C3C1C (stereo not drawn) [Compound 21]	64	100	–
CC1=CC(/C=C(\C)CCC=O)C2(C(=O)/C=C/C=O)C(=O)NC(CC(C)C)C2C1C (stereo not drawn) [Compound 22]	91	100	–
CC1=CC2/C=C(\C)CCC(=O)C(=O)CCC(=O)C23C(=O)NC(CC(C)C)C3C1C (stereo not drawn) [Compound 24, Aspochalasin A]	62	80	–
CC1=CC2/C=C(\C)CCC(O)C(=O)/C=C/C(=O)C23C(=O)NC(CC(C)C)C3C1C (stereo not drawn) [Compound 25, Aspochalasin B]	87	100	–
CC1=CC2/C=C(\C)CCC(O)C(O)/C=C/C(=O)C23C(=O)NC(CC(C)C)C3C1C (stereo not drawn) [Compound 26, Aspochalasin C]	92	100	–
CC1=CC2/C=C(\C)CCC(O)C(O)/C=C/C(=O)C23C(=O)NC(CC(C)C)C3C1C (stereo not drawn) [Compound 27, Aspochalasin D]	–	–	The inhibition ratio (%) of the compound against SH3 domain binding [1, 6]: 100%; The inhibition ratio (%) of the compound against SH3 domain binding [1, 7]: 100%
CC1=CC2/C=C(\C)CCC(O)C(O)C(O)CC(=O)C23C(=O)NC(CC(C)C)C3C1C (stereo not drawn) [Compound 28, Aspochalasin E]	31	73	–
CC(C)(C)n1nc(-c2ccc(Cl)cc2)c2c(N)ncnc21 [pp2, 4-amino-5-(4-chrolophenyl)-7-(tert-butyl)-pyrazolo[3,4-d]pyrimidine]	–	–	amount of HIV-1 (RT activity count) [2]: increased
Mer-WF1726 [Compound 12]	–	–	The inhibition ratio (%) of the compound against SH3 domain binding [1, 4]: 39%; The inhibition ratio (%) of the compound against SH3 domain binding [1, 5]: 88%
UCS15A [Compound 1]	–	–	live cells (Trypan blue) [3]: live cells were not decreased; The inhibition ratio (%) of the compound against SH3 domain binding [1, 6]: 0%; The inhibition ratio (%) of the compound against SH3 domain binding [1, 7]: 46%
